Laboratory results taken from paper PMC8224775, “Five Tetramic Acid Derivatives Isolated from the Iranian Fungus Colpoma quercinum CCTU A372” (Biomolecules, 2021).
Converted amounts (≈) assume the structure as drawn. Where two headings read alike, the source gives them in different places.

Key:
Assay in all cases: Antimicrobial serial dilution assay (MIC)
Assay type in all cases: cell-based
Escherichia coli = details: serial dilution 67 to 0.5 µg/mL, overnight
Description: (§1) Antimicrobial activity was determined by our established protocol, according to Becker et al.. In general, all of the pure compounds were dissolved in MeOH with a concentration of 1 mg/mL. Assessment of the antimicrobial activity was determined using the serial dilution assay method to calculate the minimum inhibitory concentration (MIC). In this method, the compounds were diluted in a range between 67 and 0.5 µg/mL in 96 well-plate and incubated with the test organism overnight. The next day, growth of the test organisms was visually observed, and MIC was determined in the lowest concentration where a clear zone (no growth of test organism) was observed. In our attempt for novel anti-infective compounds, an established standard protocol using various organisms representing a broad spectrum of pathogens of clinical interest, as well as sensitive indicator strains, was used (bacteria: Bacillus subtilis DSM 10, Staphylococcus aureus DSM 346, Acinetobacter baumanii DSM 30008, Chromobacterium violaceum DSM 30191, Escherichia coli DSM 1116 and Pseudomonas aeruginosa PA14; mycobacteria: Mycobacterium smegmatis ATCC 700084 and fungi: Candida albicans DSM 1665, Schizosaccharomyces pombe DSM 70572, Mucor hiemalis DSM 2656, Wickerhamomyces anomala DSM 6766 and Rhodotorula glutinis DSM 10134). Methanol as a solvent to dissolve the pure compounds was used as the negative control. Oxytetracycline, ciprofloxacin, gentamycin, and kanamycin were used as positive controls against bacteria, whereas nystatin was used against fungi. A detailed experimental procedure can be found in the SI.
(§2) Protocol: Antimicrobial Activity Assay
(§3) The assay was conducted as a minimum inhibitory concentration (MIC) assay in 96-well round- bottom microtiter plates using the parameters summarized in Table S1 and as already described in [S1]. Stocks of the test organisms were generated by growing the organisms overnight in 50 mL shaking flasks filled with 25 mL of the growth medium at 140r p m ( media and temperatures see Table S1). If the organisms were well grown the next day, which was checked by the occurrence of an optical density (OD) […] of the suspension (OD600 nm for bacteria, OD548 nm for fungi and M. smegmatis), aliquots of these were stored in 1.5 mL reaction tubes in a freezer at −80 °C for up to 12 months. Upon use, aliquots were unthawed and the OD of the suspension measured and adjusted by diluting with the respective growth medium. OD600 nm was adjusted to 0.01 and OD548 nm to 0.1. Subsequently, 150 μ L of the adj usted suspensions were added to all wells of a 96-well microtiter plate (one test organism per plate). In row A, additional 130 μ L of suspensions plus 20 μ L of the test compounds (1 mg/mL) and the controls (one compound/column) were added. MeOH was used as negative controls, while different positive controls (references) were used for the test organisms (see Table S1). Then, starting from row A, 150 μ L of t he suspension were transferred to the next row, the contents thoroughly mixed, and 150 μ L transferred to the following row. The remaining 150 μ L after row H were discarded. […]
(§4) of the test compounds, ranging from 66.7 μg/mL in row A to 0.52 μ g/mL in row H. The microtiter plates were then incubated overnight on a microplate shaker at 800 rpm at 30 or 37 °C (see Table S1) and were visually evaluated the next day. The MIC is defined as the lowest concentration where no growth of the test organism (clear zone) was observed. A lower MIC thus corresponds to a higher antimicrobial activity of the test compound.
(§5) Table S1: MIC assay experiment parameters test organism strain No growth incubation positive control […]
Escherichia coli DSM1116 MHB1 37 oxytetracyclin 1.0mg/ mL […]
(§6) Candidaa lbicans DSM1665 MYC3 30 nystatin 1.0mg/ mL
(§7) Schizosaccharomyces DSM70572 MYC3 30 nystatin 1.0mg/ mL
(§8) Mucor hiemalis DSM2656 MYC3 30 nystatin 1.0mg/ mL
(§9) Wickerhamomyces DSM6766 MYC3 30 nystatin 1.0mg/ mL
(§10) Rhodotorula glutinis DSM10134 MYC3 30 nystatin 1.0mg/ mL […]

Bacillus subtilis DSM 10 = details: overnight
Description: as §1, §2, §3, §4
Table S1: MIC assay experiment parameters test organism strain No growth incubation positive control
Bacillus subtilis DSM10 MHB1 30 oxytetracyclin 1.0mg/ mL […]
as §6, §7, §8, §9, §10

[1] = tested on: Staphylococcus aureus DSM 346; details: serial dilution 67 to 0.5 µg/mL, overnight
Description: as §1, §2, §3
as §4, with “A lower MIC thus corresponds to a higher antimicrobial activity of the test compound.” left out

[2] = tested on: Rhodotorula glutinis DSM 10134; details: serial dilution 67 to 0.5 µg/mL, overnight
Description: as §1, §2, §3, §4, §5, §6, §7, §8, §9
(§11) Rhodotorula glutinis DSM10134 MYC3 30 nystatin 1.0mg/ mL
(§12) 1 MHB: Müller-Hinton Broth (SN X927.1, CarlRoth GmbH, Karlsruhe, Germany) […]

Mucor hiemalis DSM 2656 = details: overnight
Description: as §1, §2, §3, §4, §5, §6, §7, §8, §9, §11, §12

Pichia anomala DSM 6766 = details: serial dilution 67 to 0.5 µg/mL, overnight
Description: as §1, §2, §3, §4, §5, §6, §7, §8, §9, §11, §12

[3] = tested on: Acinetobacter baumanii DSM 30008; details: serial dilution 67 to 0.5 µg/mL, overnight
Description: as §1, §2, §3, §4, §5, §6, §7, §8, §9, §11, §12

[4] = serial dilution 67 to 0.5 µg/mL

Row | MIC (Escherichia coli) | MIC (Bacillus subtilis DSM 10; [4]) | MIC [1] | MIC [2] | MIC (Mucor hiemalis DSM 2656; [4]) | MIC (Pichia anomala DSM 6766) | MIC [3] | MIC (Bacillus subtilis DSM 10; DSM10, serial dilution 67 to 0.5 µg/mL, read-out: MIC) [µg/mL] | MIC (Mucor hiemalis DSM 2656; DSM2656, serial dilution 67 to 0.5 µg/mL, read-out: MIC) [µg/mL] | Compound
1 | n.i | n.i | n.i | n.i | n.i | n.i | n.i |  |  | CC(=O)OC(C(=O)O)C(C)C1C(C)=CC2CC(C)CCC2C1(C)C(O)=C1C(=O)C(C)N(C)C1=O (stereo not shown) [compound 1, Colposetin A]
2 | n.i |  |  | n.i |  | n.i | n.i | 67 (≈ 160 µM) | 67 (≈ 160 µM) | CCC(C(=O)O)C1C(C)=CC2CC(C)CCC2C1(C)C(O)=C1C(=O)C(C)N(C)C1=O (stereo not shown) [compound 2, Colposetin B]
3 | n.i | n.i | n.i | n.i | n.i | n.i | n.i |  |  | CC1=CC2CC(C)CCC2C2(C)C(=O)OC(C(=O)O)C(C)C12 (stereo not shown) [compound 3, Colposetin C]
4 | n.i | n.i | n.i | n.i | n.i | n.i | n.i |  |  | CC(C=CCC(C)C=CC=C(C)C(=O)C1=C(O)C(C)N(C)C1=O)=CC(C)C(O)C(=O)O (stereo not shown) [compound 5, Colpomenoic acid B]

Row | Compound | MIC (Escherichia coli) | MIC (Bacillus subtilis DSM 10; [4]) | MIC [1] | MIC [2] | MIC (Mucor hiemalis DSM 2656; [4]) | MIC (Pichia anomala DSM 6766) | MIC [3] | MIC (Bacillus subtilis DSM 10; DSM10, serial dilution 67 to 0.5 µg/mL, read-out: MIC) [µg/mL] | MIC (Mucor hiemalis DSM 2656; DSM2656, serial dilution 67 to 0.5 µg/mL, read-out: MIC) [µg/mL]
5 | CC(C=CCC(C)CCC=C(C)C(=O)C1=C(O)C(C)N(C)C1=O)=CC(C)C(O)C(=O)O (stereo not shown) [compound 4, Colpomenoic acid A] | n.i | n.i | n.i | n.i | n.i | n.i | n.i |  | 
